Reference: patent US8765707B2, “MicroRNA-140-5p as a tumor suppressor and sensitizing agent for chemotherapy” (University of Houston System, priority 2011, dated 2014)
Entries after “also recorded” stand apart in the source; their conditions may differ.

Key:
[1] = system: MYCN; assay: MYCN induction in conditional MYCN3 cell line (QPCR); type: cell-based; conditions: 1 ug/ml doxorubicin
Description: In FIG. 1 using a conditional MYCN cells line MYCN3, neuroblastoma patients with high and low MYCN were simulated. […] Induced MYCN is functional as shown by alteration in cell cycle distribution 24 hours after exposure to doxorubicin. Chip-PCR results for E-boxes of two known MYCN target genes MIR17HG and MDM2 confirming the specificity of the immunoprecipitation and relative enrichment for MYCN target gene promoters.

[2] = system: CHLA255 neuroblastoma cell line; assay: MTT proliferation assay in CHLA255 neuroblastoma cells; type: cell-based; conditions: CHLA255 stable cell line expressing microRNA with GFP, compared to control cells
Description: (§1) […] sequences (SEQ ID NOS: 3-4), which mimic miR-140-5p wildtype (SEQ ID NO: 1) and mutant miR-140-5p (SEQ ID NO: 2), were transfected into CHLA255 neuroblastoma cell line upper-GFP vector. Table 1 identifies the nucleotide sequences of the wildtype and mutant microRNAs and their mimics. The altered nucleotides in the mutant sequences are shown in bold.
(§2) The impact of these sequences on these cells was measured by increase in absorbance from the MTT assay (FIG. 2A) and the ability to form colonies on a soft agar plate in a clonogenicity assay (FIG. 2B). Stable cell line expression of microRNAs with GFP were compared to control cells. […] Colony formation assays were carried out in soft agar-representative wells showing colony growth at 10 days. Colonies were stained and counted by eye or by digital image analysis software.

[3] = system: CHLA-255 neuroblastoma tumors; assay: In vivo orthotopic xenograft model of neuroblastoma; parameters: species or system mouse; conditions: tumors over-expressing miR-140-5p vs control CHLA-255; Kruskal-Wallis p<0.01; n=9
Description: FIG. 3 illustrates the impact of miR-140-5p on in vivo orthotopic xenograft model of neuroblastoma. *Kruskal-Wallis method p<0.01; mean±SEM; n=9 in miR-140-5p cohort, n=10 in all other cohorts. Using the contralateral kidney (*) for comparison the average tumor weight for each cohort+SEM.

[4] = system: CHLA255 neuroblastoma cell line; assay: Soft agar colony formation (clonogenicity) assay; type: cell-based; conditions: CHLA255, colony growth at 10 days, triplicate experiments
Description: as §1, §2

Compound | Increase in MYCN mRNA message level [1] [fold] | Proliferation as measured by increase in absorbance from MTT assay [2] | Average tumor weight [3] | Colony counts in soft agar [4]
COc1cccc2c1C(=O)c1c(O)c3c(c(O)c1C2=O)C[C@@](O)(C(=O)CO)C[C@@H]3O[C@H]1C[C@H](N)[C@H](O)[C@H](C)O1 [doxorubicin] | 20 | – | – | –
miR-140-5p: SEQ ID NO: 1, CAGUGGUUUUACCCUAUGGUAG (listed as RNA, chemistry not given here) | – | consistently decrease the proliferation rates; also recorded: significantly decreases the proliferation | significantly smaller than control; also recorded: significantly suppresses in vivo tumor growth and burden | significantly decrease colonies
